Data published in US20050181376A1, “Antisense modulation of microsomal triglyceride transfer protein expression” (ISIS Pharmaceuticals, Inc., priority 2001, published 2005).
Strand notation (5' to 3'): a small letter for the sugar, then the base; units joined by * are phosphorothioate-linked, units joined directly phosphodiester-linked; [ ] holds rarer units or linkages, { } end groups; capitals alone tell only the bases. e = 2'-O-(2-methoxyethyl) (MOE); [5mC] = 5-methylcytosine; d = 2'-deoxy (DNA)

System: mouse microsomal triglyceride transfer protein mRNA
Test: Antisense inhibition of mouse microsomal triglyceride transfer protein mRNA levels in primary hepatocytes, quantitative real-time PCR
Type: cell-based
Design: concentration or dose not given beside the values
Details: averages from two experiments
Procedure: Primary mouse hepatocytes were prepared from CD-1 mice purchased from Charles River Labs (Wilmington, Mass.) and were routinely cultured in Hepatocyte Attachment Media (Gibco) supplemented with 10% Fetal Bovine Serum (Gibco/Life Technologies, Gaithersburg, Md.), 250 nM dexamethasone (Sigma), and 10 nM bovine insulin (Sigma). Cells were seeded into 96-well plates (Falcon-Primaria #3872) at a density of 10000 cells/well for use in RT-PCR analysis.
Cells were harvested 16-24 hours after oligonucleotide treatment.
All cytidine residues are 5-methylcytidines. […] Data are averages from two experiments. If present, “N.D.” indicates “no data”.

## 144470 (eG*eT*eA*eG*e[5mC]*d[5mC]*d[5mC]*dA*d[5mC]*dG*d[5mC]*dT*dG*dT*d[5mC]*eT*eT*eG*e[5mC]*eG; antisense) [compound 144470]
  % INHIB (inhibition of mouse microsomal triglyceride transfer protein mRNA levels): 5%

## 144467 (eG*e[5mC]*eT*e[5mC]*e[5mC]*d[5mC]*dT*d[5mC]*dT*dG*d[5mC]*d[5mC]*dA*d[5mC]*dA*eT*e[5mC]*e[5mC]*eA*eG; antisense) [compound 144467]
  % INHIB (inhibition of mouse microsomal triglyceride transfer protein mRNA levels): 0%

## TGACATGCCAGCATAAGAGT (all phosphorothioate, sugars by position and methylation of C not given here; 2'-MOE wings and deoxy gap) [ISIS 144498, 2′-MOE gapmer phosphorothioate antisense oligonucleotide to mouse MTP]
  % INHIB (inhibition of mouse microsomal triglyceride transfer protein mRNA levels): at least 30%

## CACCTGCCACTTGCTTCCCG (all phosphorothioate, sugars by position and methylation of C not given here; 2'-MOE wings and deoxy gap) [ISIS 144479, 2′-MOE gapmer phosphorothioate antisense oligonucleotide to mouse MTP]
  % INHIB (inhibition of mouse microsomal triglyceride transfer protein mRNA levels): at least 30%

## 144482 (eG*eA*eA*eG*eT*d[5mC]*d[5mC]*dG*dG*dA*dG*dG*dT*dG*d[5mC]*eT*eG*eG*eA*eT; antisense) [compound 144482]
  % INHIB (inhibition of mouse microsomal triglyceride transfer protein mRNA levels): 3%

## 144510 (eG*eG*eT*e[5mC]*eT*dT*d[5mC]*dT*d[5mC]*d[5mC]*dT*dG*dA*dA*dT*eA*eG*eG*eT*eT; antisense) [compound 144510]
  % INHIB (inhibition of mouse microsomal triglyceride transfer protein mRNA levels): 0%

## 144490 (eA*e[5mC]*eG*eA*eT*dT*d[5mC]*dT*dG*dG*dT*dG*dG*dT*dA*eT*eA*eT*e[5mC]*e[5mC]; antisense) [compound 144490]
  % INHIB (inhibition of mouse microsomal triglyceride transfer protein mRNA levels): 23%

## CCCTGGTCTCTTCTGCAAGC (all phosphorothioate, sugars by position and methylation of C not given here; 2'-MOE wings and deoxy gap) [ISIS 144478, 2′-MOE gapmer phosphorothioate antisense oligonucleotide to mouse MTP]
  % INHIB (inhibition of mouse microsomal triglyceride transfer protein mRNA levels): at least 30%

## 144498 (eT*eG*eA*e[5mC]*eA*dT*dG*d[5mC]*d[5mC]*dA*dG*d[5mC]*dA*dT*dA*eA*eG*eA*eG*eT; antisense) [compound 144498]
  % INHIB (inhibition of mouse microsomal triglyceride transfer protein mRNA levels): 44%

## TGCACAACGGTGAGCATGTA (all phosphorothioate, sugars by position and methylation of C not given here; 2'-MOE wings and deoxy gap) [ISIS 144492, 2′-MOE gapmer phosphorothioate antisense oligonucleotide to mouse MTP]
  % INHIB (inhibition of mouse microsomal triglyceride transfer protein mRNA levels): at least 30%

## CGCTGACAGGGTCGCCGGAT (all phosphorothioate, sugars by position and methylation of C not given here; 2'-MOE wings and deoxy gap) [ISIS 144499, 2′-MOE gapmer phosphorothioate antisense oligonucleotide to mouse MTP]
  % INHIB (inhibition of mouse microsomal triglyceride transfer protein mRNA levels): at least 30%

## 144495 (e[5mC]*eA*eG*eA*eA*dT*dG*d[5mC]*d[5mC]*dA*dG*dA*dG*d[5mC]*d[5mC]*eA*eG*eA*eG*eT; antisense) [compound 144495]
  % INHIB (inhibition of mouse microsomal triglyceride transfer protein mRNA levels): 42%

## 144481 (eT*eT*e[5mC]*e[5mC]*eA*dG*dT*dG*d[5mC]*dT*d[5mC]*d[5mC]*dG*d[5mC]*d[5mC]*eA*eG*eA*eG*eA; antisense) [compound 144481]
  % INHIB (inhibition of mouse microsomal triglyceride transfer protein mRNA levels): 33%

## 144508 (e[5mC]*eG*eT*e[5mC]*eA*dT*dA*dG*d[5mC]*dA*dT*dA*dT*d[5mC]*dG*eT*eT*e[5mC]*eT*eG; antisense) [compound 144508]
  % INHIB (inhibition of mouse microsomal triglyceride transfer protein mRNA levels): 0%

## 144494 (eA*eA*eG*eG*e[5mC]*dT*dG*dT*dA*dT*dG*dT*dG*dG*dA*e[5mC]*eG*e[5mC]*eT*eG; antisense) [compound 144494]
  % INHIB (inhibition of mouse microsomal triglyceride transfer protein mRNA levels): 27%

## 144496 (e[5mC]*eT*eG*e[5mC]*eA*dA*dT*dT*dA*dA*dG*d[5mC]*d[5mC]*dT*dT*e[5mC]*e[5mC]*eA*eG*e[5mC]; antisense) [compound 144496]
  % INHIB (inhibition of mouse microsomal triglyceride transfer protein mRNA levels): 40%

## 144491 (e[5mC]*eA*eG*e[5mC]*eA*dG*d[5mC]*dG*dG*d[5mC]*dA*dG*dT*dT*dG*eT*eG*e[5mC]*eG*e[5mC]; antisense) [compound 144491]
  % INHIB (inhibition of mouse microsomal triglyceride transfer protein mRNA levels): 26%

## 144504 (eG*eA*eA*e[5mC]*eT*d[5mC]*d[5mC]*dA*dG*d[5mC]*d[5mC]*d[5mC]*dA*dG*d[5mC]*e[5mC]*eT*e[5mC]*eT*eG; antisense) [compound 144504]
  % INHIB (inhibition of mouse microsomal triglyceride transfer protein mRNA levels): 0%

## 144469 (eG*eA*eG*eT*eA*d[5mC]*dG*dT*dG*dA*dG*d[5mC]*dT*dT*dG*eT*eA*eT*eA*eG; antisense) [compound 144469]
  % INHIB (inhibition of mouse microsomal triglyceride transfer protein mRNA levels): 0%

## 144501 (eG*eA*e[5mC]*e[5mC]*eA*d[5mC]*d[5mC]*d[5mC]*dT*dG*dG*dA*dT*d[5mC]*dT*e[5mC]*e[5mC]*eA*eT*eA; antisense) [compound 144501]
  % INHIB (inhibition of mouse microsomal triglyceride transfer protein mRNA levels): 52%

## GTTATCACCACAGCCACCCG (all phosphorothioate, sugars by position and methylation of C not given here; 2'-MOE wings and deoxy gap) [ISIS 144503, 2′-MOE gapmer phosphorothioate antisense oligonucleotide to mouse MTP]
  % INHIB (inhibition of mouse microsomal triglyceride transfer protein mRNA levels): at least 30%

## CCTGGAGTATGATACTGCTG (all phosphorothioate, sugars by position and methylation of C not given here; 2'-MOE wings and deoxy gap) [ISIS 144484, 2′-MOE gapmer phosphorothioate antisense oligonucleotide to mouse MTP]
  % INHIB (inhibition of mouse microsomal triglyceride transfer protein mRNA levels): at least 30%

## 144497 (e[5mC]*eT*e[5mC]*eT*e[5mC]*d[5mC]*dT*dT*d[5mC]*dA*dT*d[5mC]*dA*dG*dG*eA*eG*eT*eG*eG; antisense) [compound 144497]
  % INHIB (inhibition of mouse microsomal triglyceride transfer protein mRNA levels): 57%

## CTGCAATTAAGCCTTCCAGC (all phosphorothioate, sugars by position and methylation of C not given here; 2'-MOE wings and deoxy gap) [ISIS 144496, 2′-MOE gapmer phosphorothioate antisense oligonucleotide to mouse MTP]
  % INHIB (inhibition of mouse microsomal triglyceride transfer protein mRNA levels): at least 30%

## CTCGCGATACCACAGACTGA (all phosphorothioate, sugars by position and methylation of C not given here; 2'-MOE wings and deoxy gap) [ISIS 144502, 2′-MOE gapmer phosphorothioate antisense oligonucleotide to mouse MTP]
  % INHIB (inhibition of mouse microsomal triglyceride transfer protein mRNA levels): at least 30%
